Source: ChEMBL document CHEMBL3045918, “Synthesis, crystal structure, and insecticidal activities of highly congested hexahydroimidazo[1,2-a]pyridine derivatives: effect of conformation on activities” (2010)

These compounds were tested on Mythimna separata (assay: Insecticidal activity against second-instar larvae Mythimna separata (Oriental armyworm) in compound treated corn leaves assessed as mortality at 500 mg/L measured after 48 hr). Conditions: not given.
Type: functional

**Q.** `O=[N+]([O-])/N=C1\NCCN1Cc1ccc(Cl)nc1` [IMIDACLOPRID] was tested. Which mortality at 500 µg/mL did it give?
**A.** Its mortality at 500 µg/mL is 100%.

**Q.** Which mortality at 500 µg/mL does the source give for `Cc1ccc([C@@H]2C([N+](=O)[O-])=C3N(Cc4ccc(Cl)nc4)CCN3[C@H](c3ccc(C)o3)[C@@]2(C2=NCCN2Cc2ccc(Cl)nc2)[N+](=O)[O-])o1` here?
**A.** Its mortality at 500 µg/mL is 100%.

**Q.** With `O=[N+]([O-])C1=C2N(Cc3ccc(Cl)nc3)CCN2[C@H](c2ccco2)[C@@](C2=NCCN2Cc2ccc(Cl)nc2)([N+](=O)[O-])[C@@H]1c1ccco1` as the compound, how does the mortality at 500 µg/mL read?
**A.** The mortality at 500 µg/mL was 100%.

**Q.** How did the mortality at 500 µg/mL turn out when `O=[N+]([O-])C1=C2N(Cc3ccc(Cl)nc3)CCN2[C@H](c2cccs2)[C@@](C2=NCCN2Cc2ccc(Cl)nc2)([N+](=O)[O-])[C@@H]1c1cccs1` was run?
**A.** The mortality at 500 µg/mL was 100%.

**Q.** `O=[N+]([O-])C1=C2N(Cc3ccc(Cl)nc3)CCN2[C@H](c2ccco2)[C@@](C2=NCCN2Cc2ccc(Cl)nc2)([N+](=O)[O-])[C@H]1c1ccco1` was tested. Which mortality at 500 µg/mL did it give?
**A.** The mortality at 500 µg/mL was 0%.

**Q.** How did the mortality at 500 µg/mL turn out when `Cc1ccc([C@H]2C([N+](=O)[O-])=C3N(Cc4ccc(Cl)nc4)CCN3[C@H](c3ccc(C)s3)[C@@]2(C2=NCCN2Cc2ccc(Cl)nc2)[N+](=O)[O-])s1` was run?
**A.** The mortality at 500 µg/mL was 0%.

**Q.** Which mortality at 500 µg/mL does the source give for `O=[N+]([O-])C1=C2N(Cc3ccc(Cl)nc3)CCN2[C@H](c2cccs2)[C@@](C2=NCCN2Cc2ccc(Cl)nc2)([N+](=O)[O-])[C@H]1c1cccs1` here?
**A.** The mortality at 500 µg/mL was 0%.

**Q.** With `Cc1ccc([C@@H]2C([N+](=O)[O-])=C3N(Cc4ccc(Cl)nc4)CCN3[C@H](c3ccc(C)s3)[C@@]2(C2=NCCN2Cc2ccc(Cl)nc2)[N+](=O)[O-])s1` as the compound, how does the mortality at 500 µg/mL read?
**A.** The mortality at 500 µg/mL was 100%.

The compounds below were run on Aphis craccivora (assay: Insecticidal activity against Aphis craccivora (cowpea aphid) in compound treated horsebean plant leaves assessed as mortality measured after 24 hr by leaf-dip method). Conditions: not given.
Type: functional

**Q.** Which LC50 does the source give for `O=[N+]([O-])/N=C1\NCCN1Cc1ccc(Cl)nc1` [IMIDACLOPRID] here?
**A.** The LC50 was 35 µM.

**Q.** For `Cc1ccc([C@@H]2C([N+](=O)[O-])=C3N(Cc4ccc(Cl)nc4)CCN3[C@H](c3ccc(C)o3)[C@@]2(C2=NCCN2Cc2ccc(Cl)nc2)[N+](=O)[O-])o1`, which LC50 is on record?
**A.** Its LC50 is 1.31 µM.

**Q.** Which LC50 does the source give for `O=[N+]([O-])C1=C2N(Cc3ccc(Cl)nc3)CCN2[C@H](c2ccco2)[C@@](C2=NCCN2Cc2ccc(Cl)nc2)([N+](=O)[O-])[C@@H]1c1ccco1` here?
**A.** The LC50 was 4.43 µM.

**Q.** `O=[N+]([O-])C1=C2N(Cc3ccc(Cl)nc3)CCN2[C@H](c2cccs2)[C@@](C2=NCCN2Cc2ccc(Cl)nc2)([N+](=O)[O-])[C@@H]1c1cccs1` was tested. Which LC50 did it give?
**A.** The LC50 was 46.8 µM.

**Q.** With `Cc1ccc([C@@H]2C([N+](=O)[O-])=C3N(Cc4ccc(Cl)nc4)CCN3[C@H](c3ccc(C)s3)[C@@]2(C2=NCCN2Cc2ccc(Cl)nc2)[N+](=O)[O-])s1` as the compound, how does the LC50 read?
**A.** The LC50 was 3.79 µM.

The compounds below were run on Aphis craccivora (assay: Insecticidal activity against Aphis craccivora (cowpea aphid) in compound treated horsebean plant leaves assessed as mortality at 500 mg/L measured after 24 hr by leaf-dip method). Conditions: not given.
Type: functional

**Q.** With `O=[N+]([O-])/N=C1\NCCN1Cc1ccc(Cl)nc1` [IMIDACLOPRID] as the compound, how does the mortality at 500 µg/mL read?
**A.** Its mortality at 500 µg/mL is 100%.

**Q.** How did the mortality at 500 µg/mL turn out when `Cc1ccc([C@@H]2C([N+](=O)[O-])=C3N(Cc4ccc(Cl)nc4)CCN3[C@H](c3ccc(C)o3)[C@@]2(C2=NCCN2Cc2ccc(Cl)nc2)[N+](=O)[O-])o1` was run?
**A.** Its mortality at 500 µg/mL is 100%.

**Q.** With `O=[N+]([O-])C1=C2N(Cc3ccc(Cl)nc3)CCN2[C@H](c2ccco2)[C@@](C2=NCCN2Cc2ccc(Cl)nc2)([N+](=O)[O-])[C@@H]1c1ccco1` as the compound, how does the mortality at 500 µg/mL read?
**A.** The mortality at 500 µg/mL was 100%.

**Q.** For `O=[N+]([O-])C1=C2N(Cc3ccc(Cl)nc3)CCN2[C@H](c2cccs2)[C@@](C2=NCCN2Cc2ccc(Cl)nc2)([N+](=O)[O-])[C@@H]1c1cccs1`, which mortality at 500 µg/mL is on record?
**A.** Its mortality at 500 µg/mL is 100%.

**Q.** With `O=[N+]([O-])C1=C2N(Cc3ccc(Cl)nc3)CCN2[C@H](c2ccco2)[C@@](C2=NCCN2Cc2ccc(Cl)nc2)([N+](=O)[O-])[C@H]1c1ccco1` as the compound, how does the mortality at 500 µg/mL read?
**A.** The mortality at 500 µg/mL was 87%.

**Q.** `Cc1ccc([C@H]2C([N+](=O)[O-])=C3N(Cc4ccc(Cl)nc4)CCN3[C@H](c3ccc(C)s3)[C@@]2(C2=NCCN2Cc2ccc(Cl)nc2)[N+](=O)[O-])s1` was tested. Which mortality at 500 µg/mL did it give?
**A.** Its mortality at 500 µg/mL is 100%.

**Q.** Which mortality at 500 µg/mL does the source give for `O=[N+]([O-])C1=C2N(Cc3ccc(Cl)nc3)CCN2[C@H](c2cccs2)[C@@](C2=NCCN2Cc2ccc(Cl)nc2)([N+](=O)[O-])[C@H]1c1cccs1` here?
**A.** The mortality at 500 µg/mL was 85.6%.

**Q.** With `Cc1ccc([C@@H]2C([N+](=O)[O-])=C3N(Cc4ccc(Cl)nc4)CCN3[C@H](c3ccc(C)s3)[C@@]2(C2=NCCN2Cc2ccc(Cl)nc2)[N+](=O)[O-])s1` as the compound, how does the mortality at 500 µg/mL read?
**A.** The mortality at 500 µg/mL was 100%.

The compounds below were run on Nilaparvata lugens (assay: Insecticidal activity against compound resistant second-instar larvae Nilaparvata lugens (brown planthopper) in compound rice seedlings assessed as toxicity at 25 degC measured after 6 days relative to control). Conditions: not given.
Type: functional

**Q.** With `O=[N+]([O-])/N=C1\NCCN1Cc1ccc(Cl)nc1` [IMIDACLOPRID] as the compound, how does the Ratio read?
**A.** Its Ratio is 1.

**Q.** `O=[N+]([O-])C1=C2N(Cc3ccc(Cl)nc3)CCN2[C@H](c2ccco2)[C@@](C2=NCCN2Cc2ccc(Cl)nc2)([N+](=O)[O-])[C@@H]1c1ccco1` was tested. Which Ratio did it give?
**A.** Its Ratio is 10.32.

What follows are compounds tested on Nilaparvata lugens (assay: Insecticidal activity against compound sensitive second-instar larvae Nilaparvata lugens (brown planthopper) in compound rice seedlings assessed as toxicity at 25 degC measured after 6 days relative to control). Conditions: not given.
Type: functional

**Q.** `O=[N+]([O-])/N=C1\NCCN1Cc1ccc(Cl)nc1` [IMIDACLOPRID] was tested. Which Ratio did it give?
**A.** Its Ratio is 1.

**Q.** Which Ratio does the source give for `O=[N+]([O-])C1=C2N(Cc3ccc(Cl)nc3)CCN2[C@H](c2ccco2)[C@@](C2=NCCN2Cc2ccc(Cl)nc2)([N+](=O)[O-])[C@@H]1c1ccco1` here?
**A.** Its Ratio is 1.62.

The compounds below were run on Nilaparvata lugens (assay: Insecticidal activity against compound resistant second-instar larvae Nilaparvata lugens (brown planthopper) in compound rice seedlings assessed as mortality at 25 degC measured after 6 days). Conditions: 144 h.
Type: functional

**Q.** `O=[N+]([O-])/N=C1\NCCN1Cc1ccc(Cl)nc1` [IMIDACLOPRID] was tested. Which LC50 did it give?
**A.** Its LC50 is 38.8 µM.

**Q.** `O=[N+]([O-])C1=C2N(Cc3ccc(Cl)nc3)CCN2[C@H](c2ccco2)[C@@](C2=NCCN2Cc2ccc(Cl)nc2)([N+](=O)[O-])[C@@H]1c1ccco1` was tested. Which LC50 did it give?
**A.** Its LC50 is 3.76 µM.

The compounds below were run on Nilaparvata lugens (assay: Insecticidal activity against compound sensitive second-instar larvae Nilaparvata lugens (brown planthopper) in compound rice seedlings assessed as mortality at 25 degC measured after 6 days). Conditions: 144 h.
Type: functional

**Q.** With `O=[N+]([O-])/N=C1\NCCN1Cc1ccc(Cl)nc1` [IMIDACLOPRID] as the compound, how does the LC50 read?
**A.** Its LC50 is 1.73 µM.

**Q.** With `O=[N+]([O-])C1=C2N(Cc3ccc(Cl)nc3)CCN2[C@H](c2ccco2)[C@@](C2=NCCN2Cc2ccc(Cl)nc2)([N+](=O)[O-])[C@@H]1c1ccco1` as the compound, how does the LC50 read?
**A.** The LC50 was 1.07 µM.

The compounds below were run on Mythimna separata (assay: Insecticidal activity against second-instar larvae Mythimna separata (Oriental armyworm) in compound treated corn leaves assessed as mortality measured after 48 hr). Conditions: not given.
Type: functional

**Q.** With `O=[N+]([O-])/N=C1\NCCN1Cc1ccc(Cl)nc1` [IMIDACLOPRID] as the compound, how does the LC50 read?
**A.** The LC50 was 125 µM.

**Q.** `Cc1ccc([C@@H]2C([N+](=O)[O-])=C3N(Cc4ccc(Cl)nc4)CCN3[C@H](c3ccc(C)o3)[C@@]2(C2=NCCN2Cc2ccc(Cl)nc2)[N+](=O)[O-])o1` was tested. Which LC50 did it give?
**A.** The LC50 was 43 µM.

**Q.** Which LC50 does the source give for `O=[N+]([O-])C1=C2N(Cc3ccc(Cl)nc3)CCN2[C@H](c2ccco2)[C@@](C2=NCCN2Cc2ccc(Cl)nc2)([N+](=O)[O-])[C@@H]1c1ccco1` here?
**A.** The LC50 was 26.5 µM.

**Q.** `O=[N+]([O-])C1=C2N(Cc3ccc(Cl)nc3)CCN2[C@H](c2cccs2)[C@@](C2=NCCN2Cc2ccc(Cl)nc2)([N+](=O)[O-])[C@@H]1c1cccs1` was tested. Which LC50 did it give?
**A.** Its LC50 is 44.1 µM.

**Q.** With `Cc1ccc([C@@H]2C([N+](=O)[O-])=C3N(Cc4ccc(Cl)nc4)CCN3[C@H](c3ccc(C)s3)[C@@]2(C2=NCCN2Cc2ccc(Cl)nc2)[N+](=O)[O-])s1` as the compound, how does the LC50 read?
**A.** Its LC50 is 27.9 µM.
